In patent US6358293B1, “Methods for rendering high concentrations of manganese safe for plant growth and formulations for same” (The Hampshire Chemical Corporation, priority 1999, dated 2002):

Tests used:
Geranium [1] = test: Growth promotion versus conventionally cultured and single-additive controls; format: in vivo
New Guinea Impatiens [2] = test: as above; format: in vivo
Geranium [3] = test: Effective root application doses; format: in vivo; conditions: 10 ml per plant
Method: (§1) The following are exemplary ranges of effective root application doses based on 10 ml per plant.

Coleus [4] = test: Effective root application doses; format: in vivo; conditions: 10 ml per plant
Method: as §1

Cabbage = test: Effective root application doses; format: in vivo; conditions: 10 ml per plant
Method: as §1

Coleus [5] = test: Growth promotion versus conventionally cultured and single-additive controls; format: in vivo
New Guinea Impatiens [6] = test: Effective foliar application doses; format: in vivo; conditions: 1 to 4 ml per plant
Method: (§2) The following are exemplary ranges of effective foliar application doses based on 1 to 4 ml per plant.

Corn = test: Effective foliar application doses; format: in vivo; conditions: 1 to 4 ml per plant
Method: as §2

plants = conditions: conventional conditions of plant culture, especially under acidic conditions; cited from earlier work

In the case of `CO[C@H]1OC(CO)[C@H](O)[C@@H](O)[C@@H]1O` (some centres unmarked) [MeG, methyl glucoside], the “effect of additive on plant growth” value (Geranium [1]) is reported as “retarded growth”, the “effect of additive on plant growth” value (New Guinea Impatiens [2]) is reported as “retarded growth” and the “effective root application dose, MeG” value (Geranium [3]; MeG applied with Mn) is reported as 10 to 100 mM. The “effective root application dose, MeG” value (Coleus [4]; MeG applied with Mn) was 5 to 50 mM, the “effective root application dose, MeG” value (Cabbage; MeG applied with Mn) was 10 to 30 mM and the “effect of additive on plant growth” value (Coleus [5]) was “retarded growth”. For the same compound, the “effective foliar application dose, MeG” value (New Guinea Impatiens [6]; MeG applied with Mn) was 200 to 500 mM and the “effective foliar application dose, MeG” value (Corn; MeG applied with Mn) was 5 to 25 mM.

With `[Mn+2]` [Mn, manganese] the “effect of additive on plant growth” value (Geranium [1]) was “phytotoxic”, the “effect of additive on plant growth” value (New Guinea Impatiens [2]) was “phytotoxic” and the “effective root application dose, Mn” value (Geranium [3]; Mn applied with MeG) was 2 to 15 ppm. The “effective root application dose, Mn” value (Coleus [4]; Mn applied with MeG) was 2 to 7 ppm, the “effective root application dose, Mn” value (Cabbage; Mn applied with MeG) was 2 to 15 ppm and the “concentration at which manganese is phytotoxic to plants” value (plants) was “greater than 500 ppb”. For the same compound, the “effect of additive on plant growth” value (Coleus [5]) was “phytotoxic”, the “effective foliar application dose, Mn” value (New Guinea Impatiens [6]; Mn applied with MeG) was 10 to 25 ppm and the “effective foliar application dose, Mn” value (Corn; Mn applied with MeG) was 10 to 25 ppm.
